Experimental data: patent US4454341A, “Naphthyl or tetrahydronaphthyl-substituted naphthoic acid and derivatives” (SRI International, priority 1983, dated 1984)

Experiments:
[1] = system: Ornithine Decarboxylase; assay: Ornithine decarboxylase (ODC) assay: inhibition of TPA induction of ODC in mouse skin; assay type: in vivo, mouse (female Charles River CD-1); settings: topical, 1 hour before TPA (17 nmol)
Protocol: (§1) The ODC assay measures a compound's ability to prevent the induction of ODC. The tracheal organ culture assay measures a compound's ability to reverse keratinization.
The ODC assay is carried out as follows. Female Charles River CD-1 mice from Charles River Breeding Laboratories, Wilmington, Mass., are used (age 7 to 9 weeks). The dorsal hair of the mice is shaved 1 to 2 days before testing, and only mice showing no hair regrowth are used. A single dose of 12-O-tetradecanoylphorbol-13-acetate (TPA) (10.5 μg, 17 nmol) in 0.2 mL of acetone is applied topically to the back of each mouse. The test compound, at one of three dose levels (1.7, 17 and 170 nmol), dissolved in 0.2 mL of acetone is applied 1 hour before the TPA treatment to the test groups; the control group is treated with acetone alone. The mice are killed by cervical dislocations five hours after TPA treatment. Determinations are done in triplicate.
The epidermis is obtained from the sacrificed animals. To obtain sufficient material, the dorsal skins from 2 to 3 mice in each treatment group are pooled. The depilatory agent Nudit® (Helena Rubinstein, N.Y.) is applied to the shaved area of the skin; after 5 minutes, it is washed off thoroughly with cold tap water. Then the skin is excised and plunged immediately into ice-cold water; it is then placed in a 55° C. water bath for 30 seconds and reimmersed in ice-cold water for at least another 30 seconds. The skin is placed epidermis side up on a cold plate, and the epidermis is scraped off with a razor blade. The pooled epidermal sheets are homogenized (Polytron PT-10 homogenizer) at 0° to 4° C. for 15-20 seconds in 50 mM sodium phosphate and 0.1 mM ethylenediaminetetraacetic acid (EDTA), at a volume of 1 mL/skin.
The supernatant fraction remaining after centrifugation of the homogenate at 10,000×g for 30 seconds at 0° C. is used for the enzyme assay. Enzyme activity is determined using the microassay for ODC as described by Verma and Boutwell to measure the release of ^14 CO2 from DL-[1-^14 C]-ornithine (58 mCi/mmol) after incubation with the 10,000×g supernatant. The incubations are carried out by decanting, with a Pasteur pipette, 100 μL of the supernatant containing 100 to 120 μg of protein into two or three 15-mL Corex tubes in a shaking water bath at 37° C. The assay mixture in the tubes consists of 50 μL of 100 mM sodium phosphate buffer (pH 7.2), 10 μL of 4 mM pyridoxal phosphate, 40 μL of 25 mM dithiothreitol, and 1 μL of 0.1 M EDTA. The center wells in the tubes are filled with 200 μL of a 2:1 solution (v/v) of ethanolamine:2-methoxyethanol. The reaction is started by adding 50 μL of substrate (0.5 μCi of DL-[1-^14 C]-ornithine in 2 mM cold ornithine) at 1-minute intervals by injection to each of the stoppered tubes. Incubations are routinely carried out at 37° C. for 30 to 60 minutes. The reaction is stopped by addition of 0.5 ml of 2M citric acid, and incubation is continued for an additional hour without heating to ensure complete absorption of ^14 CO2.
Radioactivity is measured using a toluene-based scintillant (4 g of PPO and 50 mg of POPOP/L of toluene) in a Beckman LS-250 liquid scintillation counter. Enzyme activity is determined in triplicate and expressed as nanomoles of CO2 released in 30 minutes per milligram of protein. Enzyme activity is linear for the protein concentration used. The protein concentrations of the epidermal extracts are determined by the Lowry procedure, using bovine serum albumin as the standard.

[2] = system: Hamster Tracheal Organ Culture (keratinization); assay: Tracheal organ culture assay (reversal of keratinization); assay type: cell-based; settings: 10 days in culture
Protocol: as §1
The tracheal organ culture assay is carried out as follows. Tracheas are taken from hamsters that are in very early stages of vitamin A deficiency and placed in organ culture. At the time of culture, the animals are still gaining weight; the tracheal epithelium is generally low columnar or cuboidal, with only occasional patches of squamous metaplasia. Each trachea is opened from the larynxto the carina along the membranous dorsal wall and cultured in a serum-free medium (CMRL-1066; with crystalline bovine insulin, 0.1 μg/ml; hydrocortisone hemisuccinate, 0.1 μg/ml; glutamine, 2 mM; penicillin, 100 units/ml; and streptomycin, 100 μg/ml, added). Cultures are gassed with 50% oxygen, 45% nitrogen, and 5% CO2. The culture dishes are rocked at 35.5-36.0 degrees to allow the tracheas contact with both gas and medium. All tracheas are grown in medium containing no retinoid for the first 3 days. At the end of 3 days, some tracheas are harvested; almost all of these tracheas have significant squamous metaplasia, and approximately 60% have keratinized lesions. The remaining tracheas are then divided into different groups which are treated with either: (1) retinoid dissolved in dimethylsulfoxide (final concentration of DMSO in culture medium is never greater than 0.1%) or (2) an equivalent amount of DMSO alone. Culture medium is changed three times a week, and all of the remaining tracheas are harvested at the end of 10 days in culture. Tracheas are fixed in 10% buffered formalin and embedded in paraffin. Cross sections of five micrometers are made through the mid-portion, stained with hematoxylin and eosin, and then scored with a microscope for the presence of keratin and keratohyaline granules, both of which are found in approximately 90% of control cultures that received no retinoid for the entire 10 day culture period.

[3] = system: ornithine decarboxylase (ODC); settings: literature, copending application or unpublished data; cited from earlier work

Row | Structure (SMILES) | Inhibition of Induction of Ornithine Decarboxylase by 12-O-Tetradecanoylphorbol-13-acetate in Mouse Skin, % Inhibition of Control ([1]; Dose 1.7 nmol) [%] | Inhibition of Induction of Ornithine Decarboxylase by 12-O-Tetradecanoylphorbol-13-acetate in Mouse Skin, % Inhibition of Control ([1]; Dose 17 nmol) | Reversal of Keratinization in Hamster Tracheal Organ Culture, Active Cultures (%) ([2]; Conc 10^-9 M) | Reversal of Keratinization in Hamster Tracheal Organ Culture, Active/Total Cultures ([2]; Conc 10^-9 M) | Reversal of Keratinization in Hamster Tracheal Organ Culture, Active Cultures (%) ([2]; Conc 10^-10 M) | Reversal of Keratinization in Hamster Tracheal Organ Culture, Active/Total Cultures ([2]; Conc 10^-10 M) | Reversal of Keratinization in Hamster Tracheal Organ Culture, Active Cultures (%) ([2]; Conc 10^-11 M) | Reversal of Keratinization in Hamster Tracheal Organ Culture, Active/Total Cultures ([2]; Conc 10^-11 M) | activity in the ODC assay (in words) [3] | Reversal of Keratinization in Hamster Tracheal Organ Culture, Active Cultures (%) ([2]; Conc 10^-8 M) | Reversal of Keratinization in Hamster Tracheal Organ Culture, Active/Total Cultures ([2]; Conc 10^-8 M)
1 | CC1(C)CCC(C)(C)c2cc(-c3ccc4cc(C(=O)O)ccc4c3)ccc21 [6-(1,2,3,4-Tetrahydro-1,1,4,4-tetramethyl-6-naphthyl)-2-naphthoic acid] | 56 | 80% | 100 | 7/7 | 100 | 7/7 | 71 | 5/7 |  |  | 
2 | CC1=C(C=Cc2ccc3cc(C(=O)O)ccc3c2)C(C)(C)CCC1 [6-[2-(2,6,6-trimethyl-1-cyclohexen-1-yl)ethenyl]-2-naphthoic acid] |  |  |  |  |  |  |  |  | exhibited activity in the ODC assay |  | 
3 | CCOC(=O)c1ccc(/C=C(\C)c2ccc3c(c2)C(C)(C)CCC3(C)C)cc1 [Ethyl 4-[(E)-2-(1,2,3,4-tetrahydro-1,1,4,4-tetramethyl-6-naphthyl)-1-propen-1-yl]benzoate] | 86 | 86% |  |  |  |  |  |  | exhibits activity in the ODC assay |  | 
4 | CCOC(=O)c1ccc2cc(-c3ccc4c(c3)C(C)(C)CCC4(C)C)ccc2c1 [Ethyl 6-(1,2,3,4-tetrahydro-1,1,4,4-tetramethyl-6-naphthyl)-2-naphthoate] | 50 | 75% |  |  |  |  |  |  |  |  | 
5 | CC1=C(/C=C/C(C)=C/C=C/C(C)=C/C(=O)O)C(C)(C)CCC1 [Retinoic Acid] |  | 87-91% | 88 | 419/474 | 52 | 134/256 |  |  |  | 100 | 236/236
